Reference: patent US20140328918A1, “METHODS OF TREATING A SUBJECT AND RELATED PARTICLES, POLYMERS AND COMPOSITIONS” (CERULEAN PHARMA INC., priority 2010, published 2014)
Several values for one entry are separate records, joined by “and”; a condition that tells them apart may be missing. Identical values can stand only once. Like-named read-outs stand apart in the source and are kept apart here.

Assays:
[1] = Tolerability in mouse melanoma model B16.F10 (Example 87); assay type: in vivo, male C57BL/6 mice; conditions: 1/wk×3
Experimental: (§1) The treatments were administered IV into the tail vein at a dose volume of 10 ml/kg, beginning on post-implantation day 5, when the mean tumor volume was ca. 60 mm^3. Animals were monitored for any morbidity and adverse effects three times a week. In addition, body weight and tumor volume were also measured three times a week.

ADR-RES cells = test: Efficacy in docetaxel resistant model ADR-RES (Example 85); assay type: in vivo, female nu/nu mice
Experimental: ADR-RES cells were grown in culture to 85-90% confluency in RPMI medium supplemented with 10% fetal bovine serum (FBS), 1% glutamine and 1% penicillin/streptomycin.
(§2) The treatments were administered IV into the tail vein at a dose volume of 10 and 20 mL/kg for 30 and 60 mg/kg respectively, beginning on post-implantation day 47, when the mean tumor volume was ca. 150 mm^3 Body weight and tumor volume were measured for three times a week during the dosing period and twice a week thereafter. In addition, animals were also monitored for any morbidity and adverse effects for three times a week during the dosing period and twice a week thereafter.
Tumor volume was calculated with (width×width×length)/2 mm^3 formula. Efficacy was determined by tumor growth inhibition (TGI), tumor growth delay (TGD) and survival. Tumor growth inhibition (TGI) is represented as % and calculated as (1−(treated tumor volume/control tumor volume))×100 when the control group mean tumor volume reached ≧1000 mm^3 Tumor growth delay (TGD) is calculated by subtracting the day when the vehicle treated group reached the maximum tumor size 1000 mm^3 from the day when the treatment group tumor size reached 1000 mm^3.

[2] = Tolerability in ADR-RES model (Example 85); assay type: in vivo, female nu/nu mice
Experimental: as §2

H1299 cells = test: Efficacy in non-small cell lung carcinoma model H1299 (Example 86); assay type: in vivo, male nu/nu mice; conditions: 30 mg/kg
Experimental: H1299 cells were grown in culture to 85-90% confluency in RPMI medium supplemented with 10% fetal bovine serum (FBS), 1% glutamine and 1% penicillin/streptomycin. Cells were removed from the culture flask using 0.05% trypsin (passage=4), re-suspended in RPMI medium (density=50×10^6 cells/mL) and were implanted subcutaneously (5×10^6 cells in 100 μL RPMI medium/mouse) into the mammary fat pad area of male nu/nu mice on day 1.
(§3) The treatments were administered IV into the tail vein at a dose volume of 10 and 20 mL/kg for 30 and 60 mg/kg respectively, beginning on post-implantation day 30 when the mean tumor volume was ca. 170 mm^3 (small tumor group), and on day 37 when the mean tumor volume was ca. 440 mm^3 (large tumor group). Body weight and tumor volume were measured for three times a week during the dosing period and twice a week thereafter. In addition, animals were also monitored for any morbidity and adverse effects for three times a week during the dosing period and twice a week thereafter.
(§4) Tumor volume was calculated with (width×width×length)/2 mm^3 formula. Efficacy was determined by tumor growth inhibition (TGI), tumor growth delay (TGD) and survival. Tumor growth inhibition (TGI) is represented as % and calculated as (1−(treated tumor volume/control tumor volume))×100 when the control group mean tumor volume reached ≧1000 mm^3. Tumor growth delay (TGD) is calculated by subtracting the day when the vehicle treated group reached the maximum tumor size 1000 mm^3 from the day when the treatment group tumor size reached 1000 mm^3.

[3] = Tolerability in H1299 model (Example 86); assay type: in vivo, male nu/nu mice
Experimental: as §3, §4

[4] = Tolerability in normal non-tumor-bearing mice: body weight, CBC, serum chemistry, ataxia, sciatic nerve histopathology (Example 83); assay type: in vivo, male C57BL/6 mice
Experimental: Treatments were administered intravenously on a q7d×2 schedule, i.e., two treatments seven days apart (the first treatment was on Day one). The study ended on Day 14, six days after the 2nd treatment. Blood was collected for complete blood count (CBC) and serum chemistry. Leg muscles were collected so that nerve degeneration could be assessed from the sciatic nerve.

[5] = Body weight and ataxia in MDA-MB-435 tumor-bearing mice (Example 82); assay type: in vivo, female CD-1 nude mice; conditions: for body weight loss: weekly×two injections
Experimental: The treatments were administered IV into the tail vein at the dose volumes stated above, beginning on post-implantation Day 21, when the mean tumor volume was 150 mm^3 or, for one group, on Day 37, when the mean tumor volume for that group was 433 mm^3.

[6] = Tolerability in mouse melanoma model B16.F10 (Example 84); assay type: in vivo, male C57BL/6 mice; conditions: 30 mg/kg, 1/wk×3
Experimental: (§5) The treatments were administered IV into the tail vein at a dose volume of 10 and 15 ml/kg for a corresponding dose of 30 mg/kg and 45 mg/kg respectively, beginning on post-implantation day 5, when the mean tumor volume was ca. 60 mm^3 Body weight and tumor volume were measured three times a week. In addition, animals were also monitored for any morbidity and adverse effects three times a week.

B16.F10 cells [7] = test: Efficacy of docetaxel-2′-5050 PLGA-O-acetyl nanoparticles in mouse melanoma model B16.F10 (Example 84); assay type: in vivo, male C57BL/6 mice; conditions: 30 mg/kg, 1/wk×3
Experimental: B16.F10 cells were grown in culture to 85-90% confluency in MEM-alpha medium supplemented with 10% fetal bovine serum (FBS) and 1% penicillin/streptomycin. Cells were removed from the culture flask using 0.05% trypsin (passage=4), re-suspended in PBS (density=10×10^6 cells/mL) and were implanted subcutaneously (1×10^6 cells in 100 μL MEM-alpha medium/mouse) into the right flank of male C57BL/6 mice on day 1.
as §5
Tumor volume was calculated with (width×width×length)/2 mm^3 formula. Efficacy was determined by tumor growth inhibition (TGI), tumor growth delay (TGD) and survival. Tumor growth inhibition (TGI) is represented as % and calculated as (1−(treated tumor volume/control tumor volume))×100 when the control group mean tumor volume reached ≧3000 mm^3. Tumor growth delay (TGD) is calculated by subtracting the day when the vehicle treated group reached the maximum tumor size 3000 mm^3 from the day when the treatment group tumor size reached 3000 mm^3. […]

B16.F10 cells [8] = test: Efficacy of docetaxel-2′-alanine-glycolate and -2′-glycine-5050 PLGA-O-acetyl nanoparticles in mouse melanoma model B16.F10 (Example 87); assay type: in vivo, male C57BL/6 mice; conditions: 1/wk×3
Experimental: B16.F10 cells were grown in culture to 85-90% confluency in MEM-alpha medium supplemented with fetal bovine serum (FBS) and 1% penicillin/streptomycin. Cells were removed from the flask using 0.05% trypsin (passage=4), re-suspended in PBS (density=10×10^6 cells/mL) and were implanted subcutaneously (1×10^6 cells in 100 μL PBS/mouse) into the right flank of male C57BL/6 mice on day 1.
as §1
Tumor volume was calculated with (width×width×length)/2 mm^3 formula. Efficacy was determined by tumor growth inhibition (TGI), tumor growth delay (TGD) and survival. Tumor growth inhibition (TGI) is represented as % and calculated as (1−(treated tumor volume/control tumor volume))×100 when the control group mean tumor volume reached ≧3000 mm^3. Tumor growth delay (TGD) is calculated by subtracting the day when the vehicle treated group reached the maximum tumor size 3000 mm^3 from the day when the treatment group tumor size reached 3000 mm^3. The criterion at which a mouse was removed from the study was tumor volume≧3000 mm^3

[9] = Lyophilization and reconstitution of PEGylated nanoparticles: appearance and particle size (Zetasizer); assay type: physicochemical; conditions: PLGA7K-PVA-PEG2K-30 and PLGA7K-PVA-PEG5K-30 PEGylated nanoparticle formulations, lyoprotectant/nanoparticle weight ratio 1:1
Excerpt: Nanoparticles comprising therapeutic agents were lyophilized using three different techniques. The first technique was a simple freeze drying technique where the liquid formulations were frozen with liquid nitrogen followed by drying under vacuum overnight at room temperature. During this simple lyophilization technique a Labconco® freeze dryer (available from Labconco Corp. of Kansas City, Mo.) was used. […] Instead of conventional multi-step ramping and holding, one step slow ramping was used in this approach.
Both the rapid cycle and conventional cycle lyophilization reactions were performed using a VirTis advantage freeze dryer.
A lyoprotectant screen was performed as follows. The critical point for design of a lyophilization cycle was to keep the temperature below the glass transition temperature (Tg′) of the lyoprotectant during the primary drying stage.
In this example, a new strategy of using cyclodextrins and their derivatives as a cryoprotectant was tested.
PEGylated nanoparticle formulations were analyzed for nanoparticle size prior to lyophilization, and lyophilized preparations that were completely resuspended by hand shaking were analyzed for nanoparticle size with a Zetasizer particle sizer. […] Prior to lyophilization, lyoprotectants and non-cyclic carbohydrates were added to PEGylated nanoparticle formulations at different weight ratios.

[10] = Stability of 1H NMR sample stored at ambient temperature; assay type: physicochemical; conditions: 4 days
Experimental: Docetaxel-2′-aminoethyldithioethyl carbonate.DCA [2.77 g] was dissolved in DCM (100 mL) to produce a clear solution. It was washed with saturated NaHCO3 (2×40 mL). The organic layer was separated, dried over sodium sulfate and filtered. The filtrate was concentrated to ˜10 mL, to which heptanes (100 mL) was slowly added resulting in a suspension. It was stirred for 0.5 h and filtered (30 mL heptanes wash). The filter cake was vacuum-dried at ambient temperature for 16 h to afford the free base of CPX1231 [2.17 g, yield: 88%].

[11] = Body weight changes in A2780 tumor-bearing mice (Example 78); assay type: in vivo, female CD-1 nude mice; conditions: Day 36
Experimental: The stock solution was diluted further with PBS to 1.5 mg/mL (for a dose of 15 mg/kg at 10 mL/kg and 30 mg/kg at 20 mL/kg). This formulation was made within 30 minutes of administration to mice.
The treatments were administered 2 times, on Day 8 and Day 15 (weekly×2 injections) for n=8 mice per group. […] On Day 50, the study was ended for all remaining mice. When removed from the study, mice were euthanized by CO2 inhalation.

[12] = Body weight and ataxia in SK-OV-3 tumor-bearing mice (Example 81); assay type: in vivo, female CD-1 nude mice; conditions: 60 mg/kg, weekly×two injections
[13] = mouse, in vivo
Experimental: The stock solution was diluted further with PBS to 0.6, 1.5, 3, 4.5 and 6 mg/mL (for a corresponding dose of 6, 15, 30, 45 and 60 mg/kg) so that all the groups received the same amount of ethanol, polysorbate 80, water and PBS. […] 5) PEGylated O-acetyl-5050-PLGA nanoparticle vehicle at the highest concentration of 6 mg/mL.
The treatments were administered IV into the tail vein at a dose volume of 10 mL/kg, beginning on post-implantation Day 5, when the mean tumor volume was 55 mm^3. The treatments were administered 4 times, on Days 5, 8, 12 and 15 (biweekly×4 injections). On Day 17 post-tumor implantation, mice were euthanized by CO2 inhalation according to the procedure guideline. Blood was collected by cardiac puncture and put into ethylenediaminetetraacetic acid (EDTA) or serum separation blood collection tubes. Whole blood was analyzed on the day of collection for CBC analyses. After the blood clotted and was centrifuged, serum was frozen immediately on dry ice for serum chemistry analyses.
Tolerability was determined by changes in body weight, expressed as a percent of the initial body weight on post-implantation Day 5. […] Other indices of toxicity, complete blood count (CBC) and serum chemistry were determined from blood collected from animals that were euthanized on Day 17 by CO2 inhalation, according to the procedure guideline.

B16.F10 cells [14] = test: Efficacy of PEGylated docetaxel-5050 PLGA-O-acetyl nanoparticles (2k/5k mPEG-PLGA), B16.F10 murine melanoma (Example 79); assay type: in vivo, male C57BL/6 mice; conditions: q7dx3, 30 mg/kg
Experimental: Refer to table for detailed description of formulations.
Tumor volume was calculated with the following equation: (width×width×length)/2 mm^3.

B 16.F10 cells = test: CellTiter-Glo cytotoxicity of nanoparticles formed from CDP-linker-docetaxel compounds (Example 131); assay type: cell-based, mouse; conditions: CellTiter-Glo, 24, 48 and 72 hours of incubation
Experimental: To measure the cytotoxic effect of CDP-linker-docetaxel compounds, the CellTiter-Glo Luminescent Cell Viability Assay (CTG) was used. […] B 16.F10 cells, grown to 85-90% confluency in 150 cm2 flasks (passage<30), were resuspended in media (MEM-alpha, 10% HI-FBS, 1× antibiotic-antimycotic solution) and added to 96-well opaque-clear bottom plates at a concentration of 1500 cells/well in 200 μL/well. The cells were incubated at 37° C. with 5% CO2 for 24 hours. The following day, serial dilutions of 2× concentrated particles and 2× concentrated free drug were made in 12-well reservoirs with media to specified concentrations. The media in the plates was replaced with 100 μL of fresh media and 100 μL of the corresponding serially diluted drug. Three sets of plates were prepared with duplicate treatments. Following 24, 48 and 72 hours of incubation at 37° C. with 5% CO2, the media in the plates was replaced with 100 μL of fresh media and 100 μL of CTG solution, and then incubated for 5 minutes on a plate shaker at room temperature set to 450 rpm and allowed to rest for 15 minutes. Viable cells were measured by luminescence using a microtiter plate reader. The data was plotted as % viability vs. concentration and standardized to untreated cells.

[15] = Particle properties (Zavg, PDI, Dv50, Dv90) by dynamic light scattering; assay type: physicochemical; conditions: polymer conjugate
Excerpt: Particle solution properties were characterized by dynamic light scattering (DLS) spectrometer.

## CC(=O)O[C@@]12CO[C@@H]1C[C@H](O)[C@@]1(C)C(=O)[C@H](O)C3=C(C)[C@@H](OC(=O)[C@H](O)[C@@H](NC(=O)OC(C)(C)C)c4ccccc4)C[C@@](O)([C@@H](OC(=O)c4ccccc4)[C@H]21)C3(C)C [Free docetaxel, docetaxel]
[1]; 15 mg/kg
  Maximum body weight loss (%): 2%
[1]; 30 mg/kg
  Maximum body weight loss (%): 12% and 14%
ADR-RES cells; 30 mg/kg, 1/biwk×3
  survival on day 102: 50%
ADR-RES cells; 30 mg/kg, 1/wk×2
  survival on day 106: 50%
ADR-RES cells; 60 mg/kg, 1/wk×2
  day mean tumor volume endpoint (≧1000 mm^3) reached: 106 days
  survival on day 106: 50%
[2]; 30 mg/kg, 1/biwk×3
  Maximum body weight loss (%): 9%
  body weight loss / hind limb paralysis: did not cause any significant body weight loss (<10%) or hind limb paralysis
[2]; 30 mg/kg, 1/wk×2
  Maximum body weight loss (%): 6%
  body weight loss / hind limb paralysis: did not cause any significant body weight loss (<10%) or hind limb paralysis
[2]; 60 mg/kg, 1/biwk×3
  Maximum body weight loss (%): 21%
  body weight loss / hind limb paralysis: severe hind limb paralysis following the third injection
[2]; 60 mg/kg, 1/wk×2
  Maximum body weight loss (%): 23%
  body weight loss / hind limb paralysis: hind limb paralysis after the 2nd injection followed by recovery
H1299 cells; large tumor group
  survival on day 61: 50%
  survival on day 80: 0%
H1299 cells; small tumor group
  survival on day 56: 50%
  survival on day 68: 0%
[3]; 30 mg/kg, 1/wk×2, large tumor group
  Maximum body weight loss (%): 19%
[3]; 30 mg/kg, 1/wk×2, small tumor group
  Maximum body weight loss (%): 18%
[3]; 30 mg/kg, large tumor group
  body weight loss / hind limb paralysis: did not cause any significant body weight loss or hind limb paralysis
[3]; 30 mg/kg, small tumor group
  body weight loss / hind limb paralysis: did not cause any significant body weight loss or hind limb paralysis
[3]; 60 mg/kg, large tumor group
  body weight loss / hind limb paralysis: significant body weight loss and severe hind limb paralysis following the second injection
[3]; 60 mg/kg, small tumor group
  body weight loss / hind limb paralysis: significant body weight loss and severe hind limb paralysis following the second injection
[4]; q7d×2
  serum chemistry parameters: did not affect any serum chemistry parameter at doses up to 60 mg/kg
[5]; 60 mg/kg
  Ataxia: Ataxia was observed four days after the second treatment
[6]
  Maximum body weight loss (%): 12%
B16.F10 cells [7]
  survival on day 40: 50%
  survival on day 45: 0%
B16.F10 cells [8]; 15 mg/kg
  survival on day 29: 50%
  survival on day 43: 0%
B16.F10 cells [8]; 30 mg/kg
  survival on day 36: 50%
  survival on day 40: 50%
  survival on day 43: 0%
  survival on day 45: 0%

## OC[C@@H](O)[C@@H](O)[C@H](O)[C@H](O)CO [Mannitol, mannitol]
[9]
  maintenance of particle size after simple lyophilization: None of mannitol, sucrose and trehalose worked at the same ratio

## OC[C@H]1O[C@@](CO)(O[C@H]2O[C@H](CO)[C@@H](O)[C@H](O)[C@H]2O)[C@@H](O)[C@@H]1O [Sucrose, sucrose]
[9]
  maintenance of particle size after simple lyophilization: None of mannitol, sucrose and trehalose worked at the same ratio

## OC[C@H]1O[C@H](O[C@H]2O[C@H](CO)[C@@H](O)[C@H](O)[C@H]2O)[C@H](O)[C@@H](O)[C@@H]1O [Trehalose, trehalose]
[9]
  maintenance of particle size after simple lyophilization: None of mannitol, sucrose and trehalose worked at the same ratio

## CC(=O)O[C@@]12CO[C@@H]1C[C@H](O)[C@@]1(C)C(=O)[C@H](O)C3=C(C)[C@@H](OC(=O)[C@H](OC(=O)OCCSSCCN)[C@@H](NC(=O)OC(C)(C)C)c4ccccc4)C[C@@](O)([C@@H](OC(=O)c4ccccc4)[C@H]21)C3(C)C [docetaxel-2′-aminoethyldithioethyl carbonate]
[10]
  degradation of 1H NMR sample: no indication of degradation

## CC(=O)O[C@@]12CO[C@@H]1C[C@H](O)[C@@]1(C)C(=O)[C@H](O)C3=C(C)[C@@H](OC(=O)[C@H](O)[C@@H](NC(=O)OC(C)(C)C)c4ccccc4)C[C@@](O)([C@@H](OC(=O)c4ccccc4)[C@H]21)C3(C)C [docetaxel]
[4]; 30 mg/kg q7d×2
  body weight above the initial on Day 14: 3%
[4]; 45 mg/kg q7d×2
  body weight above the initial on Day 14: 2%
[4]; 30 and 45 mg/kg q7d×2
  weight gained at the second treatment: up to 7%
[5]; 15 mg/kg
  body weight loss: 10%
[5]; 30 mg/kg
  body weight loss: 14%
[11]; 15 mg/kg
  % of the initial body weight: 113±11%
[11]; 30 mg/kg
  % of the initial body weight: 105±9%
[12]
  Ataxia: observed in all the mice four days after the second treatment
[13]
  serum chemistry parameters: did not affect any serum chemistry parameter at doses up to 30 mg/kg
B16.F10 cells [14]
  day average tumor volume reached the end point of 3000 mm^3: 37 days

## OC[C@H]1O[C@@H]2O[C@H]3[C@H](O)[C@@H](O)[C@@H](O[C@H]4[C@H](O)[C@@H](O)[C@@H](O[C@H]5[C@H](O)[C@@H](O)[C@@H](O[C@H]6[C@H](O)[C@@H](O)[C@@H](O[C@H]7[C@H](O)[C@@H](O)[C@@H](O[C@H]1[C@H](O)[C@H]2O)O[C@@H]7CO)O[C@@H]6CO)O[C@@H]5CO)O[C@@H]4CO)O[C@@H]3CO [α-CD, α cyclodextrin]
[9]
  maintenance of particle size after simple lyophilization: also worked at the same weight ratio

## OC[C@H]1O[C@@H]2O[C@H]3[C@H](O)[C@@H](O)[C@@H](O[C@H]4[C@H](O)[C@@H](O)[C@@H](O[C@H]5[C@H](O)[C@@H](O)[C@@H](O[C@H]6[C@H](O)[C@@H](O)[C@@H](O[C@H]7[C@H](O)[C@@H](O)[C@@H](O[C@H]8[C@H](O)[C@@H](O)[C@@H](O[C@H]9[C@H](O)[C@@H](O)[C@@H](O[C@H]1[C@H](O)[C@H]2O)O[C@@H]9CO)O[C@@H]8CO)O[C@@H]7CO)O[C@@H]6CO)O[C@@H]5CO)O[C@@H]4CO)O[C@@H]3CO [γ-CD, γ cyclodextrin]
[9]
  maintenance of particle size after simple lyophilization: also worked at the same weight ratio

## CDP-2′-glycine-docetaxel
B 16.F10 cells
  IC50: 1.2 to 3.7 nM

## CDP-Alanine Glycolate-Docetaxel
B 16.F10 cells
  IC50: 0.4 to 2 nM

## CDP-Gly-SN-38
[15]
  particle size: 27.9 nm

## CDP-dithiolethyloxy-carbonate-docetaxel
B 16.F10 cells
  IC50: 23 nM

## CDP-hexanoate-docetaxel [CDP-hexanoate-docetaxel nanoparticles]
B 16.F10 cells
  IC50: 325 to 440 nM
